In paper PMC8944797, “Novel Antimicrobial Peptides Designed Using a Recurrent Neural Network Reduce Mortality in Experimental Sepsis” (Antibiotics, 2022):

Columns and labels:
[1] = test system: carbapenem-resistant isolates of K. pneumoniae; experiment: MIC, broth dilution method (EUCAST); type: cell-based, Klebsiella pneumoniae; conditions: median (first and third quartile) over n = 18 isolates; Mueller-Hinton broth, 37 °C, 18–20 h; range tested 0 to 32 μg/mL
Method: (§1) The strains of bacteria were isolated in 2021 from patients in the intensive care unit of the Stavropol State Regional Clinical Hospital. Identification and determination of antibiotic resistance of bacterial isolates were carried out using the disk diffusion method as part of a routine microbiological study in accordance with the European Committee on Antimicrobial Susceptibility Testing (EUCAST) protocols in the Department of Clinical Microbiology of the Center of Clinical Pharmacology and Pharmacotherapy.
The study of the antimicrobial activity of the synthesized peptides was performed by the standard broth dilution method according to the EUCAST guidelines. Briefly, pure bacterial cultures were cultured on a solid nutrient media (mannitol salt agar, BioMedia, Russia). From a fresh morning culture, we prepared a suspension in sterile saline corresponding to a McFarland turbidity standard of 0.5 (which is equivalent to 1–2 × 10^8 CFU/mL). The resulting suspension was dissolved in the BBL^TM Mueller-Hinton broth (Becton, Dickinson and Company, Franklin Lakes, NJ, USA) to obtain an inoculum with an approximate concentration of 5 × 10^5 CFU/mL. The inoculum (100 μL per well) was added to the wells of a sterile 96-well microtiter plate with a U-shaped bottom (Medpolymer, St. Petersburg, Russia). After that, serial two-fold dilutions of tested peptides (100 μL per well) were added to the wells. There were also sterility control wells (Mueller-Hinton broth only, without bacteria) and growth control wells (bacterial inoculum without peptides). Then, the plates were incubated in a thermostat at 37 °C. […] The MIC was taken as the minimum peptide concentration at which there was no visual growth in the corresponding well [26]. The peptides were dissolved in the Mueller–Hinton broth. The experiments with each peptide and bacterial isolate were performed in triplicate (in different plates). MIC values were calculated as median values of three independent replicates (calculations are presented in Supplementary Tables S1–S3). […]

[2] = test system: carbapenem-resistant isolates of Pseudomonas aeruginosa; experiment: MIC, broth dilution method (EUCAST); type: cell-based; conditions: median (first and third quartile) over n = 17 isolates; Mueller-Hinton broth, 37 °C, 18–20 h; range tested 0 to 32 μg/mL
Method: as §1
(§2) The study of the antimicrobial activity of the synthesized peptides was performed by the standard broth dilution method according to the EUCAST guidelines. Briefly, pure bacterial cultures were cultured on a solid nutrient media (mannitol salt agar, BioMedia, Russia). From a fresh morning culture, we prepared a suspension in sterile saline corresponding to a McFarland turbidity standard of 0.5 (which is equivalent to 1–2 × 10^8 CFU/mL). The resulting suspension was dissolved in the BBL^TM Mueller-Hinton broth (Becton, Dickinson and Company, Franklin Lakes, NJ, USA) to obtain an inoculum with an approximate concentration of 5 × 10^5 CFU/mL. The inoculum (100 μL per well) was added to the wells of a sterile 96-well microtiter plate with a U-shaped bottom (Medpolymer, St. Petersburg, Russia). After that, serial two-fold dilutions of tested peptides (100 μL per well) were added to the wells. There were also sterility control wells (Mueller-Hinton broth only, without bacteria) and growth control wells (bacterial inoculum without peptides). Then, the plates were incubated in a thermostat at 37 °C. […] The MIC was taken as the minimum peptide concentration at which there was no visual growth in the corresponding well [26]. The peptides were dissolved in the Mueller–Hinton broth. The experiments with each peptide and bacterial isolate were performed in triplicate (in different plates). MIC values were calculated as median values of three independent replicates (calculations are presented in Supplementary Tables S1–S3).
(§3) Calculations of MICs (median, first, and third quartile) were performed in Microsoft Excel (Supplementary Tables S1–S3). Survival analysis by the Kaplan–Meier method and log-rank (Mantel–Cox) test was performed using GraphPad Prism version 9.2.0 for macOS (GraphPad Software, San Diego, CA, USA, www.graphpad.com, accessed on 29 January 2022).

[3] = test system: carbapenem-resistant isolates of Klebsiella aerogenes; experiment: MIC, broth dilution method (EUCAST); type: cell-based; conditions: median (first and third quartile) over n = 12 isolates; Mueller-Hinton broth, 37 °C, 18–20 h; range tested 0 to 32 μg/mL
Method: as §1, §2, §3

[4] = test system: K. pneumoniae-induced sepsis; experiment: murine experimental model of K. pneumoniae-induced sepsis, survival; type: in vivo, ICR (CD-1) mice; conditions: for Survival proportions: single i.p. 100 μg dose, n=12
Method: To assess the effectiveness of the studied peptides, a murine model of lethal generalized infection was used. The model of sepsis makes it possible to perform a simple and rapid screening assessment of the effectiveness of new antimicrobial agents in vivo [22, 28].
The ICR (CD-1) laboratory mice (females with an average weight of 30 g) were maintained in the vivarium of the Stavropol State Medical University. The mice (four animals per cage) were housed in temperature-controlled rooms at 24 °C and 50–60% humidity with a 12 h/12 h light/dark cycle and water and food availability ad libitum.
The animals were injected with bacterial suspensions of one of the carbapenem-resistant isolates of K. pneumoniae (isolate #7, Supplementary Table S2) prepared from a fresh morning culture in accordance with the McFarland turbidity standard of 15 (which corresponds to an approximate concentration of 4.5 × 10^9 CFU/mL). To determine the turbidity of the suspension, a DEN-1 densitometer (Biosan, Latvia) was used.
At t = 0 min, all animals were infected with K. pneumoniae: 150 μL of a 4.5 × 10^9 CFU/mL suspension (approx. 6.75 × 10^8 CFU per mice). 30 min after infection, the mice received a single injection of peptides at a dose of 100 μg. Mortality was assessed every 24 h for 5 days. Moribund animals were killed humanely to avoid unnecessary distress.
as §3

Sequence | MIC [1] | MIC [2] | MIC [3] | Survival proportions ([4]; day 1 after infecting) | Survival proportions ([4]; day 2 after infecting) [%] | Survival proportions ([4]; day 3 after infecting) | survival proportion by the end of the observation period ([4]; single intraperitoneal 100 μg dose 30 min after infection with 6.75 × 10^8 CFU K. pneumoniae, 5 days, n = 12 mice) [%]
GILSSFKGVLKGAGKNLLGSLKDKLKN [PEP-174, synthesized LSTM RNN-generated peptide; probably printed as PEP-134 in b33] | not active | not active | not active |  |  |  | 
GIFSKLAGKKIKNLLISGLKNIGKEVGM [PEP-36, synthesized LSTM RNN-generated peptide] | not active | not active | not active | 91,7% | 75 | 66,7% | 66.7
KWKLFKKIWSSVKLKS [PEP-136, synthesized LSTM RNN-generated peptide] | not active | not active | not active |  |  |  | 
